Experimental findings from PMC6399333, “Synthetic energy sensor AMPfret deciphers adenylate-dependent AMPK activation mechanism” (Nature Communications, 2019) are described below.

Assay [1] addresses T1, AMPK γ1 subunit (in the α2β2γ1 AMPfret heterotrimer) (Rattus norvegicus, UniProt P80385).
T1 construct: gene Prkag1; with AMPK α2 (PRKAA2, Rattus norvegicus) and AMPK β2 (PRKAB2, Homo sapiens)
As to the kind of experiment: fluorometric FRET titration of the purified sensor, single-site fit. It counts as binding.

Assay [2] concerns the target T1, AMPK γ1 subunit (in the α2β2γ1 AMPfret heterotrimer). The assay can be described thus: fluorometric FRET titration of the purified sensor, single-site fit; also allosteric activation in kinase assay. In kind it is binding. The text has this: fluorometric FRET titration of the purified sensor, single-site fit; also allosteric activation in kinase assay on AMPK γ1 subunit (in the α2β2γ1 AMPfret heterotrimer) | AMPfret reports binding of AMP (in absence of ATP) at one or more binding sites

SMILES strings stand for the structures. pKd: −log10 of the molar value.

T1 sequence (P80385 whole entry): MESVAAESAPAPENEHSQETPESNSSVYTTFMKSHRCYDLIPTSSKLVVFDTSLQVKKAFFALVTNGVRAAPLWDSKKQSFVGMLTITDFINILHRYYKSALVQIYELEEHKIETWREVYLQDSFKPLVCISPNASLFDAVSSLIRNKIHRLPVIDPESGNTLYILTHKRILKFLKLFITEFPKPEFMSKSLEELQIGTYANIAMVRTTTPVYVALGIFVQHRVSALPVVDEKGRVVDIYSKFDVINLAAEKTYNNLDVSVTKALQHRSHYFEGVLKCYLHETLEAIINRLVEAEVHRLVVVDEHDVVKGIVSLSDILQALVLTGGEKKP
T1 sequence (Q09137 whole entry partner): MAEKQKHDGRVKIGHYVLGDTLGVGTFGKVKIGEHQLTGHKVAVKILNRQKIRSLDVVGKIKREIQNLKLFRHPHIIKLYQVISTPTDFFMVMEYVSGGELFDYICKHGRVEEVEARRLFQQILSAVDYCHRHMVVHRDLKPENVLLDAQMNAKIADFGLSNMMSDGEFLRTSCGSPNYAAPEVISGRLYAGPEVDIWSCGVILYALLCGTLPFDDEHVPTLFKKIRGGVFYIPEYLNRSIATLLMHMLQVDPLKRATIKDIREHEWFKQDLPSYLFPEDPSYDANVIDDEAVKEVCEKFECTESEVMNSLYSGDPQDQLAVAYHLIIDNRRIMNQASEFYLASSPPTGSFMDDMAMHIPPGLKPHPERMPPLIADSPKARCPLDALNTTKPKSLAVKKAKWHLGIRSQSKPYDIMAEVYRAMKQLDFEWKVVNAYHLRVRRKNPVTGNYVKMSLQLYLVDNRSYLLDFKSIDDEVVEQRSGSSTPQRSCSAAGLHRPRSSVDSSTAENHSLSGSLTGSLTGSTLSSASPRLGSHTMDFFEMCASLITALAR
T1 sequence (O43741 whole entry partner): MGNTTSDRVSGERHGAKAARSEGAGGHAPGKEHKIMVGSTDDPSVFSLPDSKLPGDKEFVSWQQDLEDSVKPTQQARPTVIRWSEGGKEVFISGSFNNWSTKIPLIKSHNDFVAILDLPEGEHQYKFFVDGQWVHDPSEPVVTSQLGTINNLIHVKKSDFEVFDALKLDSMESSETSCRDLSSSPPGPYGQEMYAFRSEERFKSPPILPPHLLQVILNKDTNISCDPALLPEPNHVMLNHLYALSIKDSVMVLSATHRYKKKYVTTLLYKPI

For the compound `Nc1ncnc2c1ncn2[C@@H]1O[C@H](COP(=O)(O)OP(=O)(O)O)[C@@H](O)[C@H]1O` [ADP], in assay [1], the negative-log Kd (pKd) is 5.12.
In turn, `Nc1ncnc2c1ncn2[C@@H]1O[C@H](COP(=O)(O)O)[C@@H](O)[C@H]1O` [AMP] gave a pKd in assay [2] of around 5.82.

What is called pKd is the negative decadic logarithm of the Kd, by convention in mol/L. Read a low pKd as a large Kd.
